Source: article PMC4046646 (Molecular psychiatry, 2013)

How the values were obtained:
LeuT [1] = target: LeuT (Aquifex aeolicus, UniProt O67854, A289M, form not given); assay: DEER spectroscopy; format: binding; conditions: 200 mM NaCl; 4-fold molar excess of Leu over LeuT
LeuT [2] = target: LeuT (Aquifex aeolicus, UniProt O67854); assay: DEER spectroscopy; format: binding; conditions: 200 mM NaCl; 4-fold molar excess of Leu over LeuT

With `CC(C)C[C@H](N)C(=O)O` [Leu] the “DEER spectroscopy (Q-band, 83 K), ligand-induced conformational change” value (LeuT [1]) was “LeuT A289M with Na^+ and Leu bound in the vestibule has a destabilized bound structure” and the “DEER spectroscopy (Q-band, 83 K), ligand-induced conformational change” value (LeuT [2]) was “Subsequent Leu binding resets the closed EL4 conformation in the occluded conformation of the transporter”.
